Where two headings read alike, the source gives them in different places.
Columns and labels:
[1] = system: bovine serum albumin; experiment: Blocking of methylglyoxal or glyoxal cross-linking (gel formation) of albumin, inventor's tests; format: biochemical; conditions: for gelatin formation of bovine serum albumin when methylglyoxal is added: acidic solution, room temperature, 2 cc BSA pretreated with one millimole; for gelatin formation of bovine serum albumin when methylglyoxal is added / conversion of bovine serum albumin from liquid to gelatin by methylglyoxal: one millimole methylglyoxal; for blocking of the cross-linking of albumin by methylglyoxal or glyoxal: arginines: hydrochloride salts and free base forms; for conversion of bovine serum albumin from liquid to gelatin by methylglyoxal: pH 6.4 to 7.4, room temperature, 75, 80, 83, 90 and 98.6 degrees Fahrenheit, 2 cc 30% BSA pretreated with one millimole; for methylglyoxal-induced gel formation of liquid bovine serum albumin: pretreatment, free base or hydrochloride form
[2] = system: New Zealand White rabbits made diabetic by streptozotocin; experiment: Streptozotocin-diabetic rabbits given i.v. radiolabeled glucose, kidney examination (Example 6); conditions: arginine HCL oral 30 mg/kg/day or i.v. 10 mg/kg/day, radiolabeled glucose i.v. daily
Experimental: (§1) Group 2: The rabbits of group 2 are fed a diet supplemented with oral D-arginine HCL 30 mg/kg/day (or an appropriate dose which can range from, for example, but not limited to, 1 mg/kg/day to 100 mg/kg/day).
(§2) Group 3: The rabbits of group 3 are fed a diet supplemented with oral L-arginine HCL 30 mg/kg/day (or an appropriate dose which can range from, for example, but not limited to, 1 mg/kg/day to 100 mg/kg/day).
(§3) Group 4: The rabbits of group 4 receive L-arginine HCL by ear vein in 10 cc normal saline at a dose of 10 mg/kg/day (or an appropriate dose which can range from, for example, but not limited to, 1 mg/kg/day to 100 mg/kg/day) for the duration of the experiment.
(§4) Group 5: The rabbits of group 5 receive D-arginine HCL by ear vein in 10 cc normal saline at a dose of 10 mg/kg/day (or an appropriate dose which can range from, for example, but not limited to, 1 mg/kg/day to 100 mg/kg/day) for the duration of the experiment.
(§5) At the end of the experiment, all animals are sacrificed and their kidneys removed, sectioned and examined for gross and microscopic changes, as well as for accumulation of the radiolabel, with special attention to the glomerular basement membrane.

[3] = target: T1, ovalbumin (Gallus gallus, UniProt P01012); experiment: Reaction of methylglyoxal with ovalbumin (egg albumin); format: biochemical
T1 sequence (P01012 1-386): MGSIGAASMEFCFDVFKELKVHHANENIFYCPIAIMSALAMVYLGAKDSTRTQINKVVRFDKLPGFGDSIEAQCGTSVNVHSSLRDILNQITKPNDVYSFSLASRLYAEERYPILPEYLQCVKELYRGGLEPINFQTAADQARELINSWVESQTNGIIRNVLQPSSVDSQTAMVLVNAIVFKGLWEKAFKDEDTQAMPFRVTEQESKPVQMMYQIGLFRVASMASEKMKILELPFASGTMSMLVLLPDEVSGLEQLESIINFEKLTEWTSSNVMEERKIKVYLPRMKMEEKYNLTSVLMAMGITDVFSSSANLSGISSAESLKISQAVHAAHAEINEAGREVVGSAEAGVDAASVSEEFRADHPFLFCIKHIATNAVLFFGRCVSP

[4] = system: New Zealand White rabbits made diabetic by streptozotocin; conditions: arginine HCL oral 30 mg/kg/day or i.v. 10 mg/kg/day, radiolabeled methylglyoxal i.v. daily
Experimental: as §1, §2, §3, §4, §5

[5] = target: T2, bovine serum albumin (Bos taurus, UniProt P02769); format: biochemical; conditions: for gel formation of albumin samples: pretreated with 1 millimole, 2 ml 30% BSA, 1 millimole methylglyoxal, HEPES buffered, 98.6 F., 217 rpm
T2 construct: HEPES salt, HEPES acid, and bovine serum albumin was obtained from Sigma; purchased Sigma
T2 sequence (P02769 25-607): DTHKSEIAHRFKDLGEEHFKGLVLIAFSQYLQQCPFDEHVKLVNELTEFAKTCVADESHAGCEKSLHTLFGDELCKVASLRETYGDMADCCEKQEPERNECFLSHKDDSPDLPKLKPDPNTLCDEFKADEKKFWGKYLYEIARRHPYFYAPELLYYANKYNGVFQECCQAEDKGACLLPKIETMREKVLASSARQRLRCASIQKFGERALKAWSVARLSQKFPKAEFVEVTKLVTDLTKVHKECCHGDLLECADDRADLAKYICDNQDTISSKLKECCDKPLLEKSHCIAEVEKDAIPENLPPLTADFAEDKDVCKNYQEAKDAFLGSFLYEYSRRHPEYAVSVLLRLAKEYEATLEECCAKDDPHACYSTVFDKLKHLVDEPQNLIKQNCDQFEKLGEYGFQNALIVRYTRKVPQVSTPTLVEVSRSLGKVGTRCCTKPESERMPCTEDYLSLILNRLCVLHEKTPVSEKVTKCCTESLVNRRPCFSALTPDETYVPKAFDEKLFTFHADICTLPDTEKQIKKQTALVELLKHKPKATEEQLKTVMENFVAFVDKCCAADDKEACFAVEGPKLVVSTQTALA
Experimental: The magnetic stirrer was set to 217 rpm. The pH was checked at five minutes.
The pH was constantly monitored as were the color and fluid characteristics of the mixture. […] The end-point was recorded when a visible non-flowing gel formed in the tube and could not be caused to flow when the tube was inverted at 40 degrees below the horizontal for two minutes.

[6] = target: T2, bovine serum albumin; format: biochemical
Experimental: As described in TABLE #4, 2 cc of 30% bovine serum albumin (BSA) was added by glass pipette (Kimax 1/100) to each of three glass 7 ml. test tubes numbered 1, 2, and 3. 0.4 ml. of 6 molar HEPES buffer was added to tube #1 by glass pipette. 0.5 ml. of 6 molar HEPES buffer was added to test tube #2. 0.3 ml. of 6 molar HEPES buffer was added to tube #3.

[7] = system: New Zealand White rabbits; conditions: arginine HCL oral 30 mg/kg/day or i.v. 10 mg/kg/day, methylglyoxal i.v. daily
Experimental: as §1, §2, §3, §4

[8] = system: non-diabetic animal model; experiment: Non-diabetic rabbits challenged with radiolabeled methylglyoxal (Example 7); conditions: otherwise identical to Example 5
[9] = system: bovine serum albumin; experiment: Protectant pretreatment against methylglyoxal gel formation of bovine serum albumin, pH adjusted by titration NaOH/HCL (Example 3, Table 6); format: biochemical
Experimental: As described in TABLE #6,2 ml. bovine serum albumin 30% solution was added to each of eight 7 ml. glass test tubes. One millimole of guanidine was added to tube #1; no protectant was added to tubes #2, #3, and #4. […] Into test tube #6 was added 1 millimole of L-arginine hydrochloride, the pH was adjusted to 7.40 by micro-drop titration. Into test tube #7 was added 1 millimole of L-arginine hydrochloride, not pH adjusted. Into test tube #8 was added 1 millimole of D-arginine hydrochloride, not pH adjusted. […] After 3 hours the heating unit was turned off reducing the temperature to room temperature, 75 degrees Fahrenheit, to prevent the drying out of the sample and the reaction was allowed to proceed overnight.

[10] = system: insulin dependent diabetic; experiment: L-arginine hydrochloride in a diabetic patient with painful feet (Example 9); format: in vivo, human; conditions: 700 mg twice a day (1,400 mg per day), 120kg, painful feet secondary to vasculopathy and/or neuropathy, within 6 weeks
[11] = system: bovine serum albumin; experiment: Protectant pretreatment against methylglyoxal cross-linking of HEPES-buffered bovine serum albumin (Example 2, Table 5); format: biochemical; conditions: 2 ml 30% BSA, 1 millimole protectant, 1 millimole methylglyoxal
Experimental: As described in TABLE #5, 2 cc of 30% bovine serum albumin was added by glass pipette to each of 6 glass 7 ml. test tubes numbered 1 through 6. 1 millimole of L-arginine hydrochloride in 0.5 ml. of 6 molar HEPES buffer was added to tube #1. 1 millimole of L-arginine hydrochloride in 0.4 ml. of 6 molar HEPES buffer was added to tube #2. 1 millimole D-arginine hydrochloride in 0.5 ml. of 6 molar HEPES buffer was added to tube #3. 1 millimole D-arginine hydrochloride in 0.4 ml. of 6 molar HEPES buffer was added to tube #4. 0.5 ml. of 6 molar HEPES buffer was added to tube #5. 1 millimole of glycocyamine in 0.5 ml. of 6 molar HEPES buffer was added to tube #6.
The pH was measured periodically and observations were made and recorded. At three hours the heating unit was reduced to room temperature, 75 degrees Fahrenheit, to prevent drying and the reaction allowed to proceed.

[12] = 2 ml BSA + 1 millimole protectant not pH adjusted, 0.18 ml of 40% pH-adjusted methylglyoxal
[13] = 2 ml BSA + 1 millimole protectant, pH adjusted to 7.40-7.46 with NaOH/HCL, 0.18 ml of 40% pH-adjusted methylglyoxal

N=C(N)NCCC[C@@H](N)C(=O)O [D-arginine]
binding of methylglyoxal to bovine serum albumin [1]: capable of blocking the binding
gelatin formation of bovine serum albumin when methylglyoxal is added [1]: prevent gelatin formation
blocking of the cross-linking of albumin by methylglyoxal or glyoxal [1]: worked consistently
conversion of bovine serum albumin from liquid to gelatin by methylglyoxal [1]: the albumin remains liquid
methylglyoxal-induced gel formation of liquid bovine serum albumin [1]: block methylglyoxal-induced gel formation
accumulation of radiolabeled glucose metabolites in the kidneys compared with the control [2]: reduced or absent
gross and microscopic changes in the kidney compared to the control [2]: reduced or absent
binding of methylglyoxal to egg albumin [3]: capable of blocking the binding
accumulation of radiolabeled methylglyoxal in the kidneys compared with the control [4]: reduced or absent
gross and microscopic changes in the kidney compared to the control [4]: reduced or absent

N=C(N)NCC(=O)O [glycocyamine, reference compound]
blocking of the cross-linking of albumin by methylglyoxal or glyoxal [1]: do not block

NCCS [cystieamine, reference compound]
blocking of the cross-linking of albumin by methylglyoxal or glyoxal [1]: do not block

N[C@@H](CSSC[C@H](N)C(=O)O)C(=O)O [cystine, reference compound]
blocking of the cross-linking of albumin by methylglyoxal or glyoxal [1]: do not block

NC(N)=O [urea, reference compound]
blocking of the cross-linking of albumin by methylglyoxal or glyoxal [1]: do not block

N/N=C(\N)NN [diaminoguanidine, reference compound]
blocking of the cross-linking of albumin by methylglyoxal or glyoxal [1]: do not block

CC(=O)C=O [methylglyoxal]
conversion of liquid ovalbumin ([3]; 0.2 cc of 40% methylglyoxal, two cc of liquid ovalbumin, within a matter of hours, 1976 unpublished works): from liquid to solid gelatin
product formed with bovine serum albumin ([5]; pH 6.4 to 7.4, buffered and unbuffered systems): solid gelatin
FINAL FORM ([6]; pH 7.35): GEL
time after mixing until firm yellow gelatin formed ([6]; sample 1: 2 ml 30% BSA + 0.4 cc 6 m HEPES (pH 7.40), 1 millimole methylglyoxal (0.18 ml of 40%, pH not adjusted), no protectant, 98.6° F.): <5 minutes after mixing
time until sudden gelatin formation ([6]; sample 3: 2 ml 30% BSA + 0.3 cc 6 m HEPES (pH 7.35), 0.20 ml of 40% methylglyoxal buffered to 7.36, counted from the 5-minute pH reading ('33 minutes later')): pH 7.07 at 5 minutes; 33

NC(=O)NCCC[C@H](N)C(=O)O [citrulline, reference compound]
blocking of the cross-linking of albumin by methylglyoxal or glyoxal [1]: do not block

N=C(N)NN [aminoguanidine, reference compound]
blocking of the cross-linking of albumin by methylglyoxal or glyoxal [1]: do not block

N=C(N)NCCC[C@H](N)C(=O)O [arginine, 2-amino-5-guanidovaleric acid]
level of methylglyoxal in the blood [7]: reduces
changes caused by methylglyoxal [8]: blocks

Cl.N=C(N)NCCC[C@H](N)C(=O)O [L-arginine Hydrochloride, L-arginine hydrochloride]
Observation overnight [9, 12]: became viscous overnight;
FINAL FORM [9, 13]: LIQUID
Observation overnight [9, 13]: later; remained liquid overnight;
pain in both the feet and hands [10]: marked reduction in pain
gel formation of albumin samples [5]: did not gel at any time and remained liquid
FINAL FORM ([11]; 6 m HEPES 0.4 ml): LIQUID
FINAL FORM ([11]; 6 m HEPES 0.5 cc/ml): LIQUID

N=C(N)N [guanidine, reference compound]
blocking of the cross-linking of albumin by methylglyoxal or glyoxal [1]: do not block
FINAL FORM ([9]; 2 ml BSA, 1 millimole protectant added to BSA, 1 millimole (0.18 ml of 40%) methylglyoxal pH adjusted to 7.40): GEL

Cl.N=C(N)NCCC[C@@H](N)C(=O)O [D-arginine Hydrochloride, D-arginine hydrochloride]
FINAL FORM [9, 12]: LIQUID
Observation overnight [9, 12]: later; remained liquid overnight;
FINAL FORM [9, 13]: LIQUID
Observation at 1 hr. 5 min. [9, 13]: brownish, yellow liquid,
Observation overnight [9, 13]: Remained liquid
gel formation of albumin samples [5]: did not gel at any time and remained liquid
FINAL FORM ([11]; 6 m HEPES 0.4 ml): LIQUID
FINAL FORM ([11]; 6 m HEPES 0.5 cc/ml): LIQUID

N=C(N)NCCC[C@H](N)C(=O)O [L-arginine]
binding of methylglyoxal to bovine serum albumin [1]: capable of blocking the binding
gelatin formation of bovine serum albumin when methylglyoxal is added [1]: prevent gelatin formation
blocking of the cross-linking of albumin by methylglyoxal or glyoxal [1]: worked consistently
conversion of bovine serum albumin from liquid to gelatin by methylglyoxal [1]: the albumin remains liquid
methylglyoxal-induced gel formation of liquid bovine serum albumin [1]: block methylglyoxal-induced gel formation
accumulation of radiolabeled glucose metabolites in the kidneys compared with the control [2]: reduced or absent
gross and microscopic changes in the kidney compared to the control [2]: reduced or absent
binding of methylglyoxal to egg albumin [3]: capable of blocking the binding
accumulation of radiolabeled methylglyoxal in the kidneys compared with the control [4]: reduced or absent
gross and microscopic changes in the kidney compared to the control [4]: reduced or absent
